The target in this assay is T1, ΔC2 SHIP (Homo sapiens, UniProt Q92835, DEL725-863).
T1 construct: His6; made in house; host or cells: mammalian expression vector pME18S
T1 sequence (Q92835 with tags, fused parts or gaps DEL725-863): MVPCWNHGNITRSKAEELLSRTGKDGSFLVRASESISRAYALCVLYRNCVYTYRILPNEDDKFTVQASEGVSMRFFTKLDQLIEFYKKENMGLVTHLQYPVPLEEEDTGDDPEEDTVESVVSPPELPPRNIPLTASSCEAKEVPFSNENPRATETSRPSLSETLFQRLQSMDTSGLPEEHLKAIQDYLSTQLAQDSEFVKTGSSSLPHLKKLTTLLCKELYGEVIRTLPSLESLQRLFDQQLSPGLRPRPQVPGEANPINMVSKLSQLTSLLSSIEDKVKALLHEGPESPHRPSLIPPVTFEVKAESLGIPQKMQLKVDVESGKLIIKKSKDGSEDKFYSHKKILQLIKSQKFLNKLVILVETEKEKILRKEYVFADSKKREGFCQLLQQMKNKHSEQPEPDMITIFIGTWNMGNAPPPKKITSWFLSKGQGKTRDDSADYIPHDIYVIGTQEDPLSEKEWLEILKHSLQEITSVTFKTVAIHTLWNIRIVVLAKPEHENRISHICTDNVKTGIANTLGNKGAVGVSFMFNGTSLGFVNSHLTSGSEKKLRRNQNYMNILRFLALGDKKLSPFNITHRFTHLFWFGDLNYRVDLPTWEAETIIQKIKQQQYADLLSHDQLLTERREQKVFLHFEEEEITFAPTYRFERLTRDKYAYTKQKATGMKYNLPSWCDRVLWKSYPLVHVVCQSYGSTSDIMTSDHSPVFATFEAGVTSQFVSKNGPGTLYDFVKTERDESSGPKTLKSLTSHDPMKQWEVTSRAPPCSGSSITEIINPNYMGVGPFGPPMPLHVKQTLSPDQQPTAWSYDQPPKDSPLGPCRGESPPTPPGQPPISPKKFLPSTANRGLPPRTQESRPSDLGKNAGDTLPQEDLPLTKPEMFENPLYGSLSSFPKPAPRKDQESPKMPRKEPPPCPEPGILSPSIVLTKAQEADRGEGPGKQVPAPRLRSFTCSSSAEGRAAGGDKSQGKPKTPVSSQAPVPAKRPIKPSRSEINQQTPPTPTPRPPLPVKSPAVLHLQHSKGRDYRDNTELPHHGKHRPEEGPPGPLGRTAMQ
The assay can be described thus: SHIP enzyme assay with C2 domain deleted SHIP. The class given is biochemical. The settings on record: PI-3,4-P2 20 μM, Compound 100 3 μM, 30 μM IP4. An excerpt:
A His6 tagged SHIP ΔC2 domain deletion mutant (deleting residues 725 to 863) in the mammalian expression vector pME18S was generated by a standard PCR-based methodology. An N-terminal His6 C2 domain construct was also generated by PCR inserted into the pET28C bacterial expression vector using EcoRI and NdeI restriction sites.
The allosteric regulation of enzymes has remained under-appreciated primarily because allosteric effectors are not easy to find. The molecular mechanism by which Compound 100 activated SHIP was investigated, first by performing classical enzyme kinetic analysis of its phosphatase activity. Activity measurements were performed with substrate concentrations from 10-100 μM.
The SHIP protein contains a C2 domain located at the carboxyterminal end of its phosphatase domain. […] SHIP lacking its the C2 domain (ΔC2 SHIP) was prepared.

On to `Cc1cc(O)cc2c1[C@]1(C)CCC3C(C)(C)CCC[C@]3(C)[C@H]1C2` (stereo partly shown) [Compound 100], for which the “enhancement of ΔC2 SHIP activity” value is given as “could not be enhanced”.

The values above are taken from patent publication US20100323990A1, “SHIP 1 MODULATOR PRODRUGS” (THE UNIVERSITY OF BRITISH COLUMBIA, priority 2006, published 2010).
